Laboratory results taken from patent US20210300939A1, “Single Molecule Compounds Providing Multi-Target Inhibition of BTK and Other Proteins and Methods of Use Thereof” (SignalRx Pharmaceuticals, Inc., priority 2018, published 2021).

Tests used:
[1] = biological target: T1, BRD4-2 (binding domain 2 of BRD4) (Homo sapiens, UniProt O60885); test: BRD4 binding domain 2 inhibition (Reaction Biology Corp.); conditions: 10-point curve; read-out: Target IC50 BRD4-2
T1 construct: purchased Reaction Biology Corp., Malvern, Pa; (contract assay)
Procedure: (§1) The BTK, PI3K, and/or bromodomain inhibitory activity of a compound of the invention can be determined by methods known to the skilled artisan, or by procuring relevant analysis by a commercial vendor offering such services. […] In vivo, PI3K inhibition can be determined from target tissue biopsies by standard tissue processing in which cells are disrupted and Western Blot analysis is performed to determine the presence or absence of pAKT (substrate of PI3K) relative to a control sample. PI3K inhibition assays and BTK inhibition assays are known in the art and can be procured commercially through vendors such as Reaction Biology (Malvern, Pa.). The activity of a compound of the invention as an inhibitor of a bromodomain-containing protein, such as a BET protein, including BRD2, BRD3, BRD4, and/or BRDT, or an isoform or mutant thereof, may be determined in vitro, in vivo, or in a cell line. In vitro assays include assays that determine inhibition of bromodomain-containing proteins. Alternatively, inhibitor binding may be determined by running a competition experiment where a provided compound is incubated with a bromodomain-containing protein, such as a BET protein bound to known ligands, labeled or unlabeled. In vitro bromodomain inhibition assays can be performed using Alpha Screen Technology (Perkin Elmer Life and Analytical Sciences, Shelton, Conn.). In vivo bromodomain inhibition can be determined indirectly by evaluating the amount of a protein whose gene transcription is influenced or controlled by the bromodomain protein, for example, MYCN protein transcription is controlled by BRD4 (J. E. Delmore et al., Cell 2011, 146, 904-917; A. Puissant, Cancer Discov. 2013, 3, 308-323).
(§2) Compounds of the invention were analyzed for their ability to inhibit target proteins in vitro. PI3K alpha, gamma, and delta inhibition activity was determined by Thermo Fisher Scientific-Biosciences Life Sciences Solutions, Madison, Wis. The bromodomain protein inhibition (binding domain 1 and 2 of BRD4) was determined at Reaction Biology Corp., Malvern, Pa. BTK inhibition was performed by Reaction Biology Corp., Malvern, Pa.
(§3) Additional information regarding the testing procedures is available at each company's website on the internet. The IC50 data was calculated from a 10-point curve by the vendor and is compiled in ranges in the Table 6 below.

PI3K γ = biological target: T2, PI3K γ (Homo sapiens, UniProt P48736); test: PI3K gamma inhibition (Thermo Fisher Scientific); format: biochemical; conditions: 10-point curve; read-out: Target IC50 PI3K γ
T2 construct: purchased Thermo Fisher Scientific-Biosciences Life Sciences Solutions, Madison, Wis; (contract assay)
Procedure: as §1, §2, §3

[2] = biological target: T3, BRD4-1 (binding domain 1 of BRD4) (Homo sapiens, UniProt O60885); test: BRD4 binding domain 1 inhibition (Reaction Biology Corp.); conditions: 10-point curve; read-out: Target IC50 BRD4-1
T3 construct: purchased Reaction Biology Corp., Malvern, Pa; (contract assay)
Procedure: as §1, §2, §3

JeKo-1 cells = test: Cell viability (Celltiter-Glo), JeKo-1; format: cell-based; conditions: Homo sapiens, 48 hours
Procedure: (§4) The results of this experiment are shown in FIGS. 1A-1C, and in Table 7 below. Human mantle cell lymphoma cell lines were grown in 96 well plates with 5000 cells per well in RPMI 1640 media supplemented with 10% fetal bovine serum. Cells were treated for 48 hours with a concentration range of each compound from 50 nM to 50 uM. Cell viability a measure of viable cell numbers was determined using a Celltiter-Glo^R reagent for each concentration in order to construct an IC50 curve for each compound in each cell line.

[3] = system: Human mantle cell lymphoma cell lines; test: Cell viability, mantle cell lymphoma cell lines (overall conclusion); format: cell-based; conditions: in vitro, 48 hours
Procedure: as §4

BTK (C481S) = biological target: T4, BTK (C481S) (Homo sapiens, UniProt Q06187, C481S); test: BTK cysteine mutant C481S inhibition (Reaction Biology Corp.); format: biochemical; conditions: for IC50: 10-point curve, read-out: Target IC50 BTK (C481S); for Ratio C481S/WT: ratio of the BTK IC50 values, C481S over wild-type
T4 construct: purchased Reaction Biology Corp., Malvern, Pa; (contract assay)
Procedure: as §2, §3

BTK (WT) = biological target: T5, BTK (WT) (Homo sapiens, UniProt Q06187); test: native BTK inhibition (Reaction Biology Corp.); format: biochemical; conditions: 10-point curve; read-out: Target IC50 BTK (WT)
T5 construct: purchased Reaction Biology Corp., Malvern, Pa; (contract assay)
Procedure: as §2, §3

Granta519 cells = test: Cell viability (Celltiter-Glo), Granta519; format: cell-based; conditions: Homo sapiens, Granta-519, 48 hours
Procedure: as §4

Mino cells = test: Cell viability (Celltiter-Glo), Mino; format: cell-based; conditions: Homo sapiens, 48 hours
Procedure: as §4

PI3K δ = biological target: T6, PI3K δ (Homo sapiens, UniProt O00329); test: PI3K delta inhibition (Thermo Fisher Scientific); format: biochemical; conditions: 10-point curve; read-out: Target IC50 PI3K δ
T6 construct: purchased Thermo Fisher Scientific-Biosciences Life Sciences Solutions, Madison, Wis; (contract assay)
Procedure: as §1, §2, §3

PI3K α = biological target: T7, PI3K α (Homo sapiens, UniProt P42336); test: PI3K alpha inhibition (Thermo Fisher Scientific); format: biochemical; conditions: 10-point curve; read-out: Target IC50 PI3K α
T7 construct: purchased Thermo Fisher Scientific-Biosciences Life Sciences Solutions, Madison, Wis; (contract assay)
Procedure: as §1, §2, §3

T2 sequence (P48736 whole entry): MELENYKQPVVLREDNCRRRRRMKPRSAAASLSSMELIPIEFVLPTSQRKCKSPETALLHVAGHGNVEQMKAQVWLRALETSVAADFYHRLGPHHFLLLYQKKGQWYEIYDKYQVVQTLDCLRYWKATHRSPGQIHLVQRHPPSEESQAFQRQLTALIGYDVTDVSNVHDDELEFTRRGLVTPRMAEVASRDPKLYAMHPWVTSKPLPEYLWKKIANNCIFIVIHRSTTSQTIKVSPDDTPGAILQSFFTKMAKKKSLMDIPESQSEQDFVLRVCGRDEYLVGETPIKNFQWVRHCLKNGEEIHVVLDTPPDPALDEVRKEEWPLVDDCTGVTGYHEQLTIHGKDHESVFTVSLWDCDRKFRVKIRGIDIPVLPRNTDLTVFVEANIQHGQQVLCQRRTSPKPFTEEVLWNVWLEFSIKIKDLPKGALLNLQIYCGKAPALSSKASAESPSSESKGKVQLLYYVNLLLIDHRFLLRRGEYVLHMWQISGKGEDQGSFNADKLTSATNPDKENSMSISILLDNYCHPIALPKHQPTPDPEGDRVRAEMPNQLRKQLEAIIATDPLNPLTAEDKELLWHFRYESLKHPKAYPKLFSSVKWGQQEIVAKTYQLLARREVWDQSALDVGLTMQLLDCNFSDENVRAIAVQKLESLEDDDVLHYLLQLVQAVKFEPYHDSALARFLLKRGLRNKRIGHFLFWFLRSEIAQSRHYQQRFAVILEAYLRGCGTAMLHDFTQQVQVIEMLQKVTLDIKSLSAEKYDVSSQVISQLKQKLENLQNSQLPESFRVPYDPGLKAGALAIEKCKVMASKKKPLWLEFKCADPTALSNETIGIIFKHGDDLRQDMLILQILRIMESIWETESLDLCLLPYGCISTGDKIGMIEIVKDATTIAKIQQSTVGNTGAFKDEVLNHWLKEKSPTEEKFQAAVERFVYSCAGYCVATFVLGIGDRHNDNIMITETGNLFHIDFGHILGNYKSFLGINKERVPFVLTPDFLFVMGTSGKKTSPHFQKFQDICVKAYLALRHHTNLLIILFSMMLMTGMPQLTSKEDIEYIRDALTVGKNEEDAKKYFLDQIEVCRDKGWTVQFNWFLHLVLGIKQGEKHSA
T6 sequence (O00329 whole entry): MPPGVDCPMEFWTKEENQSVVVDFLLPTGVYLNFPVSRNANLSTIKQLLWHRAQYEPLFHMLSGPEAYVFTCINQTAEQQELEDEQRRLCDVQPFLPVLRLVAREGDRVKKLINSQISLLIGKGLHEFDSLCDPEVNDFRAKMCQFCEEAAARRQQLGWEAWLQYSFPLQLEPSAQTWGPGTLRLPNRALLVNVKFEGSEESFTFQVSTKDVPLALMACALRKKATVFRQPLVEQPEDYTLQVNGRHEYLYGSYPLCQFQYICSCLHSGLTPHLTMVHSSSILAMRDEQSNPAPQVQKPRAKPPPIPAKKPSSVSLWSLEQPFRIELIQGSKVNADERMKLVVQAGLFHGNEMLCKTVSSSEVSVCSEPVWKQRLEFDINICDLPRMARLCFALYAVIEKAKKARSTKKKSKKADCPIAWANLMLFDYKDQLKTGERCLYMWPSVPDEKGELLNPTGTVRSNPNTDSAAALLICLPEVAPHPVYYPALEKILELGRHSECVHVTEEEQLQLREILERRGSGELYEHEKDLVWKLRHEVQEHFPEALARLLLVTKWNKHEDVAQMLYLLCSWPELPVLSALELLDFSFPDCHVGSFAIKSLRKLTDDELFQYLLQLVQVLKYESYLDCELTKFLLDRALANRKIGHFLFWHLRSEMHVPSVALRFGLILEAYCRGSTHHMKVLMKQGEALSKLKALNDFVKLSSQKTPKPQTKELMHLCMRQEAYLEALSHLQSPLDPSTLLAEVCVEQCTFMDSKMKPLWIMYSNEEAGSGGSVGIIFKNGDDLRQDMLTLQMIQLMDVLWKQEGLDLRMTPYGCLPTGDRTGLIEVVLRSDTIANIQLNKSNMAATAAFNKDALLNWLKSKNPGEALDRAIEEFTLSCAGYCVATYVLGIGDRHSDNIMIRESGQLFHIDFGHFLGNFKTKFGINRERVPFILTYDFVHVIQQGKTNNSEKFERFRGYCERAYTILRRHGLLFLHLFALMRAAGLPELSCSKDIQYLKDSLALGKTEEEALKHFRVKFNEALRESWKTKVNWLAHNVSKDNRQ
T6 sequence (P27986 whole entry partner): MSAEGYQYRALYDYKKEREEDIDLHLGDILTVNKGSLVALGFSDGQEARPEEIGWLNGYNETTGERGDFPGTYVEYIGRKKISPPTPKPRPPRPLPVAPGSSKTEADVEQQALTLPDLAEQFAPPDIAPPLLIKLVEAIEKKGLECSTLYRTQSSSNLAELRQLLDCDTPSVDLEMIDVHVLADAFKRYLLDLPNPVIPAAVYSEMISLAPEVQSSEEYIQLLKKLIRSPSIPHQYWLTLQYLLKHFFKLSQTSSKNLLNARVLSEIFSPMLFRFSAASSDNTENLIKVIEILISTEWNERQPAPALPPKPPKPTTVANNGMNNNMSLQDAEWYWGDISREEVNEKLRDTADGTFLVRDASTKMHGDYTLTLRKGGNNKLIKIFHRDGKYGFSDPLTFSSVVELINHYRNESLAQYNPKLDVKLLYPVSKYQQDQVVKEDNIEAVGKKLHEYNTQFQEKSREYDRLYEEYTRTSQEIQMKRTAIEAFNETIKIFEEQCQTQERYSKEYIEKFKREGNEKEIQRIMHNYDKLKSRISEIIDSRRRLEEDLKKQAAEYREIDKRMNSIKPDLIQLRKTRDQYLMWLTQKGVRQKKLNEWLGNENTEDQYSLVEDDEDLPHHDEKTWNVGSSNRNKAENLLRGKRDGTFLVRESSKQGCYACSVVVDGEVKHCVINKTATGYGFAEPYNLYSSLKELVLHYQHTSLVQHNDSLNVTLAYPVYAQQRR
T7 sequence (P42336 whole entry): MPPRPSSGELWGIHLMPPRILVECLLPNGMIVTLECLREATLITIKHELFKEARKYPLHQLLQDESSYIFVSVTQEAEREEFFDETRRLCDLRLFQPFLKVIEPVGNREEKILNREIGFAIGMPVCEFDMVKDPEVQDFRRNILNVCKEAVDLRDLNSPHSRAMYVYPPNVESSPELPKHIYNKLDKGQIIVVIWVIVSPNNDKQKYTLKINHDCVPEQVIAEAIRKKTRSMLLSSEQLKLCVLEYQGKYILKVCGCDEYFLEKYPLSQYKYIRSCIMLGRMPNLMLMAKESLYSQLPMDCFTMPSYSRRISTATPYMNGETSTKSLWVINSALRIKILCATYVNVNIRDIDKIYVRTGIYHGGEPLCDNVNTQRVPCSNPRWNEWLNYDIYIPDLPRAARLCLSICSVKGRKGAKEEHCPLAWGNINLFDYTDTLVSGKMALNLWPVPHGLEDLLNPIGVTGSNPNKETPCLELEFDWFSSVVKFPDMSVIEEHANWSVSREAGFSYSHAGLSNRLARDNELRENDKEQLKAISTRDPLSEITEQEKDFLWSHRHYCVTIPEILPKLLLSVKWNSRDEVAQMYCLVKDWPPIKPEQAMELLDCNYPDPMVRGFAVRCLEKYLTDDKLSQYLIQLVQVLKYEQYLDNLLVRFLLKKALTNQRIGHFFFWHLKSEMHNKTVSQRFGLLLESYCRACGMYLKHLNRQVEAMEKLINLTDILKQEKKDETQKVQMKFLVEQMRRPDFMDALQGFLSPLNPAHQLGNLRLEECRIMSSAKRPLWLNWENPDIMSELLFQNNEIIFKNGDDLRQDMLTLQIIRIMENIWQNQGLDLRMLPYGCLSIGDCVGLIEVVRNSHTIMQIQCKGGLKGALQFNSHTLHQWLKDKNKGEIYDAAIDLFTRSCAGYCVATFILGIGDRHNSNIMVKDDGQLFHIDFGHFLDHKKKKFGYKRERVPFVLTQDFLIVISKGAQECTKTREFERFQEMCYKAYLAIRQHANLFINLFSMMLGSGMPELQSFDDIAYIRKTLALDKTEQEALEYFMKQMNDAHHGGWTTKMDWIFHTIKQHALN
T7 sequence (P27986 whole entry partner): as the sequence (P27986 whole entry partner) above
T4 sequence (Q06187 whole entry C481S): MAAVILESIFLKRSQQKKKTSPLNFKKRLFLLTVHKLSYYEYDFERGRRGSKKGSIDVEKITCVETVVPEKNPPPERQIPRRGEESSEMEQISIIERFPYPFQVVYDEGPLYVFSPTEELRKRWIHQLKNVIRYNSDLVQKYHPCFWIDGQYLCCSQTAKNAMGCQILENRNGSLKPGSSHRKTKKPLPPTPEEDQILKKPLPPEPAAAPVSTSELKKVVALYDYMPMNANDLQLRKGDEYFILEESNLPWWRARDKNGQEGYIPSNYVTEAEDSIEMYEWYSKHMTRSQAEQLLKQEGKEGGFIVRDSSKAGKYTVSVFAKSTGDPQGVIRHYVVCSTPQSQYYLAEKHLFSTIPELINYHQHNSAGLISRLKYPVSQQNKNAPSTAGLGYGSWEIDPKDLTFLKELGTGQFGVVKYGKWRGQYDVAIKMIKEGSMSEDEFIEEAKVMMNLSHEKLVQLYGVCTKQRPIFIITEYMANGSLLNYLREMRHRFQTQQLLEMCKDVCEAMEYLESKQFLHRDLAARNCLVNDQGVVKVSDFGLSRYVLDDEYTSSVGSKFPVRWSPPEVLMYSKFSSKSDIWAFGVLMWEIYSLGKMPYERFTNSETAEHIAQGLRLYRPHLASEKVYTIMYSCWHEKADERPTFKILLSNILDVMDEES
T5 sequence (Q06187 whole entry): as the sequence (Q06187 whole entry C481S) above, with S481C counted along it

Structure (SMILES) | IC50 [1] | IC50 (PI3K γ) | IC50 [2] | IC50 (JeKo-1 cells) | Potency in reducing mantle cell lymphoma viability as compared to Ibrutinib [3] | IC50 (BTK (C481S)) | IC50 (BTK (WT)) | IC50 (Granta519 cells) | IC50 (Mino cells) | IC50 (PI3K δ) | IC50 (PI3K α) | Ratio C481S/WT (BTK (C481S))
O=c1cc(N2CCOCC2)oc2c(-c3ccc4c(c3)OCCO4)csc12 [Compound 0, reference compound] | 1 to 10 µM | < 1 µM | < 1 µM | < 1 µM | markedly more potent | 10 to 30 µM | 10 to 30 µM | 1 to 10 µM | < 1 µM | < 1 µM | – | –
C=CC(=O)Nc1cccc(-c2csc3c(=S)cc(N4CCOCC4)oc23)c1 [Compound 2, 1-[m-(5-Morpholino-7-thioxo-4-oxa-1-thia-3-indenyl)phenylamino]-2-propen-1-one] | 1 to 10 µM | < 1 µM | 10 to 30 µM | – | – | 10 to 30 µM | 1 to 10 µM | – | – | < 1 µM | < 1 µM | 8.1
C=CC(=O)Nc1cccc(-c2csc3c(=O)cc(N4CCNCC4)oc23)c1.O=C(O)C(F)(F)F [Compound 3, 1-{m-[7-Oxo-5-(1-piperazinyl)-4-oxa-1-thia-3-indenyl]phenylamino}-2-propen-1-one] | 1 to 10 µM | > 50 µM | < 1 µM | – | – | 30 to 50 µM | 1 to 10 µM | – | – | > 50 µM | > 50 µM | 24.5
C=CC(=O)N1CCOc2ccc(-c3csc4c(=O)cc(N5CCN(C(=O)OC(C)(C)C)CC5)oc34)cc21 [Compound 4, tert-butyl 4-[3-(4-acryloyl-1-oxa-4-aza-3,4-dihydro-2H-naphth-6-yl)-7-oxo-4-oxa-1-thia-5-indenyl]-1-piperazinecarboxylate] | 1 to 10 µM | 10 to 30 µM | < 1 µM | – | – | 10 to 30 µM | < 1 µM | – | – | 1 to 10 µM | 10 to 30 µM | 212
C=CC(=O)N1CCOc2ccc(-c3csc4c(=O)cc(N5CCNCC5)oc34)cc21 [Compound 5, 1-{7-[7-Oxo-5-(1-piperazinyl)-4-oxa-1-thia-3-indenyl]-4-oxa-1-aza-2,3-dihydro-1H-naphth-1-yl}-2-propen-1-one] | 1 to 10 µM | > 50 µM | < 1 µM | – | – | 10 to 30 µM | < 1 µM | – | – | 1 to 10 µM | 10 to 30 µM | 52.0
C=CC(=O)N1CCOc2ccc(-c3csc4c(=O)cc(N5CCN(C)CC5)oc34)cc21 [Compound 6, 1-(7[5-(4-Methyl-1-piperazinyl)-7-oxo-4-oxa-1-thia-3-indenyl]-4-oxa-1-aza-2,3-dihydro-1H-naphth-1-yl]-2-propen-1-one] | 10 to 30 µM | > 50 µM | 1 to 10 µM | – | – | 1 to 10 µM | < 1 µM | – | – | 1 to 10 µM | 30 to 50 µM | 11.2
C=CC(=O)Nc1cc(OC)cc(-c2csc3c(=O)cc(N4CCOCC4)oc23)c1 [Compound 8, 1-[5-Methoxy-3-(5-morpholino-7-oxo-4-oxa-1-thia-3-indenyl)phenylamino]-2-propen-1-one] | 1 to 10 µM | < 1 µM | < 1 µM | – | – | > 50 µM | < 1 µM | – | – | < 1 µM | < 1 µM | >60
